Experimental data: patent US7749526B2, “Vermin-repellant compositions and compounds” (Novartis AG, priority 2002, dated 2010)

Experiments:
[1] = system: Rhipicephalus sanguineus (nymphs); test: Arena test in vitro against Rhipicephalus sanguineus (nymphs); conditions: even up to a dilution of 3.2 μg/cm^2
Protocol: (§1) This method is carried out in titre plates having 6 wells with a cross-section of 5 cm each, using a computer-supported video system. Each well of the titre plate is lined with a circular filter paper or another suitable carrier material. The substance of formula (I) to be tested is dissolved in methanol, acetonitrile or another suitable solvent, with ultrasound treatment and heating being employed for poorly-soluble substances. In an amount of 1 to 100 μg/cm^2, the dissolved test substance is placed in the centre of the filter paper on a quadrant or circular area of ca. 2.4 cm^2 radius. 4 of the 6 wells are filled with different test substances or with the same test substance in different dilutions (e.g. 1, 3.2, 5, 10 and 20 μg/cm^2) The 5th well is treated with DEET (N,N-diethyl-m-toluamide) as standard substance. The 6th well is filled with the pure solvent and serves as a control. […] In this way, neutral and repellent substances are determined. At the same time, the duration of activity of the test substance is determined and compared with that of the standard. […] This frequency is evaluated statistically and thus quantitatively by the Willcoxon method in a comparison with the control and with the standard. […]

[2] = system: Amblyomma hebraeum or variegatum (nymphs); test: Arena test in vitro against Amblyomma hebraeum or variegatum (nymphs); conditions: even up to a dilution of 3.2 μg/cm^2
Protocol: as §1

[3] = system: parasite to be tested, e.g. ticks; test: Arena test method for testing vermin-repellent substances; conditions: 1 to 100 μg/cm^2 on filter paper; video evaluation versus control and DEET standard
Protocol: Arena Test Method for Testing Vermin-repellent Substances
This method is carried out in titre plates having 6 wells with a cross-section of 5 cm each, using a computer-supported video system. Each well of the titre plate is lined with a circular filter paper or another suitable carrier material. The substance of formula (I) to be tested is dissolved in methanol, acetonitrile or another suitable solvent, with ultrasound treatment and heating being employed for poorly-soluble substances. In an amount of 1 to 100 μg/cm^2, the dissolved test substance is placed in the centre of the filter paper on a quadrant or circular area of ca. 2.4 cm^2 radius. 4 of the 6 wells are filled with different test substances or with the same test substance in different dilutions (e.g. 1, 3.2, 5, 10 and 20 μg/cm^2) The 5th well is treated with DEET (N,N-diethyl-m-toluamide) as standard substance. The 6th well is filled with the pure solvent and serves as a control. […]
At intervals of 5 seconds, the video camera takes individual pictures of all 6 wells. […] In this way, neutral and repellent substances are determined. At the same time, the duration of activity of the test substance is determined and compared with that of the standard. […] This frequency is evaluated statistically and thus quantitatively by the Willcoxon method in a comparison with the control and with the standard. […]

[4] = system: ticks of the genus Ixodes ricinus; test: In-vivo comparison on dogs of anti-tick action following spray application; conditions: Beagle dogs; for anti-tick activity in the course of 3 successive days (in words): single spray application
Excerpt: In-vivo comparison on dogs in respect of the anti-tick action of 2-propyl-pentanoic acid-bis-(2-methoxyethyl)-amide according to the present invention with DEET (in the form of PARAPIC DOG® (a tick repellent containing DEET)) following spray application.
The following formulations of active ingredient are used in the test which follows: […]
Prior art composition of the Parapic anti-tick spray: • active substance: 15% N,N-Diethyl-3-methylbenzamide (DEET); 15% • ethylbutylacetylaminopropionate (EBMP), isopropanol, methacrylic acid copolymer, carbamide, fragrance (perfume).
Inventive composition of the 2-propyl-pentanoic acid-bis-(2-methoxyethyl )-amide spray: active substance: 2-propyl-pentanoic acid-bis-(2-methoxyethyl )-amide 4.5%; Pluronic F6® 2.0%; water 10.0%, isopropanol ad 100.0%.
The aim of the test is to make a comparison, under natural conditions, of the commercially available anti-vermin product Parapic Dog® with a typical representative of a compound of formula (I), namely 2-propyl-pentanoic acid-bis-(2-methoxyethyl)-amide. According to the packaging information one should reach with Parapic Dog® an 80% anti-tick protection over a period of 48 hours. The active ingredient of Parapic Dog® is DEET, which is the chemical substance N,N-Diethyl-3-methylbenzamide. Products based on the active ingredient DEET, such as Parapic Dog® are widely used against ticks on dogs and cats, and also on humans. Actually, the majority of the currently used anti-tick products is based on DEET, and the mostly used product in dogs is said Parapic Dog®.
Test Protocol: 12 Beagle dogs are divided into groups of 4. To distinguish them, each dog is given a numbered label. Group 1 is treated with a 4.5% 2-propyl-pentanoic acid-bis-(2-methoxy-ethyl)-amide spray (3645mg a.i./m^2). Group 2 is treated with Parapic Dog®-Spray ([…] DEET/3645 mg a.i./m^2). Group 3 remains untreated and serves as a control.
All twelve dogs are taken on 3 successive days to a wooded plot infected with ticks of the genus Ixodes ricinus and are left to run around there. They are free to move around there for 2 hours. An evaluation is made directly after returning from the wood. The two-hour walks are repeated on the next 2 days without the dogs being treated again, and the evaluation is again made directly after returning from the wood. This is effected by carefully searching the fur and the skin of each animal for ticks adhered thereto. The ticks are counted and compared with the number of ticks in the control group.

[5] = system: Boophilus microplus Biarra (larvae); test: Arena test in vitro against Boophilus microplus Biarra (larvae); conditions: even up to a dilution of 3.2 μg/cm^2
Protocol: as §1

vermin = conditions: volatilizes rather rapidly; cited from earlier work

CCCC(CCC)C(=O)N(CCOC)CCOC [Compound no. 1.31, 2-propyl-pentanoic acid-bis-(2-methoxyethyl)-amide]
long-term action against Rhipicephalus sanguineus nymphs [1]: especially marked long-term action
long-term action against Amblyomma nymphs [2]: especially marked long-term action
repellent activity in arena test [3]: particularly active
anti-tick action after 1 day ([4]; single spray application 3645 mg a.i./m^2, 2 hour walk in tick-infested wood, versus untreated control, after 1 day): 100%
anti-tick action after 2 days ([4]; single spray application 3645 mg a.i./m^2, 2 hour walk in tick-infested wood, versus untreated control, after 2 days): 98%
anti-tick action after 3 days ([4]; single spray application 3645 mg a.i./m^2, 2 hour walk in tick-infested wood, versus untreated control, after 3 days): 79%
anti-tick activity in the course of 3 successive days (in words) [4]: very good results
long-term action against Boophilus larvae [5]: especially marked long-term action

CCN(CC)C(=O)c1cccc(C)c1 [DEET, N,N-diethyl-m-toluamide, reference compound]
time after which reapplication is needed (vermin): ca. 2 hours
anti-tick activity in the course of 3 successive days (in words) [4]: drops abruptly after 2 days
